By IC50 is commonly meant the midpoint of a concentration-inhibition curve. For orientation: Ki means the equilibrium dissociation constant of an inhibitor or competing ligand from its target.

The results in this text go back to patent US7915270B2, “Oxazole ketones as modulators of fatty acid amide hydrolase” (The Scripps Research Institute, priority 2006, dated 2011).

Where only a bound is given, the exact number is not on record here.

The target of test [1] is T1, FAAH (Homo sapiens, UniProt O00519).
T1 sequence (O00519 1-579): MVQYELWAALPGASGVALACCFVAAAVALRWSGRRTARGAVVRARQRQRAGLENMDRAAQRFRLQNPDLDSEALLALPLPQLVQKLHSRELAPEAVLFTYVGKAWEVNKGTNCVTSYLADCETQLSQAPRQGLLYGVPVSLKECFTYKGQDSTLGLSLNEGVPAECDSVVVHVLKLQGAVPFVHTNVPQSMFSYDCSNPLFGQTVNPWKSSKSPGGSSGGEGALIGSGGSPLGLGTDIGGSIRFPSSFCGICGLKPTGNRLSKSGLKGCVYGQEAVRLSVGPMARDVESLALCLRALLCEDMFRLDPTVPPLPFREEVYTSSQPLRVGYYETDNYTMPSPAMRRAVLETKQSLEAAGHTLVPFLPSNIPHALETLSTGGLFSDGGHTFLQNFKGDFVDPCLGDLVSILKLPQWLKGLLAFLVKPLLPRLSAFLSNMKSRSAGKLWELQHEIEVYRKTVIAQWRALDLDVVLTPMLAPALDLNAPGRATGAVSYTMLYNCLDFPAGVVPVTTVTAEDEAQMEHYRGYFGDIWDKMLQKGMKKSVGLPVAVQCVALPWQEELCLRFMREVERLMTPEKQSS
In words: Assay Method 1B: FAAH assay, 3H-anandamide hydrolysis in cell homogenate (T84 or SK-N-MC cells transfected with human FAAH). It is filed as biochemical. Also noted: expressed in transfected cells. As to conditions: 3H-AEA 80 nM, rt 1 h, pH 9. As to the method: Transfection of Cells with Human FAAH A 10-cm tissue culture dish with a confluent monolayer of SK—N-MC cells was split 2 days (d) prior to transfection. Using sterile technique, the media was removed and the cells were detached from the dish by the addition of trypsin. One fifth of the cells were then placed onto a new 10-cm dish. Cells were grown in a 37° C. incubator with 5% CO2 in Minimal Essential Media Eagle with 10% Fetal Bovine Serum. After 2 d, cells were approximately 80% confluent. These cells were removed from the dish with trypsin and pelleted in a clinical centrifuge. The pellet was re-suspended in 400 μL complete media and transferred to an electroporation cuvette with a 0.4 cm gap between the electrodes. Supercoiled human FAAH cDNA (1 μg) was added to the cells and mixed. The voltage for the electroporation was set at 0.25 kV, and the capacitance was set at 960 μF. After electroporation, the cells were diluted into complete media (10 mL) and plated onto four 10-cm dishes. Because of the variability in the efficiency of electroporation, four different concentrations of cells were plated. The ratios used were 1:20, 1:10, and 1:5, with the remainder of the cells being added to the fourth dish. The cells were allowed to recover for 24 h before adding the selection media (complete media with 600 μg/mL G418). After 10 d, dishes were analyzed for surviving colonies of cells. Dishes with well-isolated colonies were used. Cells from individual colonies were isolated and tested. […] The reaction mixture was incubated at rt for 1 h. During the incubation, 96-well Multiscreen filter plates (catalog number MAFCNOB50; Millipore, Bedford, Mass., USA) were loaded with 25 μL of activated charcoal (Multiscreen column loader, catalog number MACL09625, Millipore) and washed once with 100 μL of MeOH. Also during the incubation, 96-well DYNEX MicroLite plates (catalog number NL510410) were loaded with 100 μL of MicroScint40 (catalog number 6013641, Packard Bioscience, Meriden, Conn., USA). After the 1 h incubation, 60 μL of the reaction mixture were transferred to the charcoal plates, which were then assembled on top of the DYNEX plates using Centrifuge Alignment Frames (catalog number MACF09604, Millipore). The unbound labeled ethanolamine was centrifuged through to the bottom plate (5 min at 2000 rpm), which was preloaded with the scintillant, as described above. The plates were sealed and left at rt for 1 h before counting on a Hewlett Packard TopCount.

Test [2] has as its target T2, Rat FAAH (Rattus norvegicus, UniProt P97612).
T2 construct: expressed in transfected cells
T2 sequence (P97612 1-579): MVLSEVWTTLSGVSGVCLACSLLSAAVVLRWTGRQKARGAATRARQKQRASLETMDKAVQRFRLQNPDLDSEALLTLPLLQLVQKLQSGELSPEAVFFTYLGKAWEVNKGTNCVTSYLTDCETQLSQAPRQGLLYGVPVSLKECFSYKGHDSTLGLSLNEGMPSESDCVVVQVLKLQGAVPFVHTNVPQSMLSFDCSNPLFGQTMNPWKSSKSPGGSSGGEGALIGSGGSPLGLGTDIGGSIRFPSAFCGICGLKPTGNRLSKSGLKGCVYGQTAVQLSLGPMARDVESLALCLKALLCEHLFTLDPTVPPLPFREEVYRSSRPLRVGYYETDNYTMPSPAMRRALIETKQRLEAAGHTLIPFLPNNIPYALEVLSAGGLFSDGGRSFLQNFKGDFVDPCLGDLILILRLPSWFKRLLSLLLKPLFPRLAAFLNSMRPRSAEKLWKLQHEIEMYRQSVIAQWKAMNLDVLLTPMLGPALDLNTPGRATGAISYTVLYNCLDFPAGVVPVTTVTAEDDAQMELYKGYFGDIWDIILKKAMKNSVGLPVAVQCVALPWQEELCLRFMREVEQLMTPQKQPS
The experiment in a line: Assay Method 2: FAAH assay, 3H-anandamide hydrolysis in cell homogenate (SK-N-MC cells transfected with rat FAAH). It is filed as biochemical. As to conditions: 3H-AEA 80 nM, rt 1 h, pH 9. As to the method:
A. Transfection of Cells with Rat FAAH
A 10-cm tissue culture dish with a confluent monolayer of SK—N-MC cells was split 2 days (d) prior to transfection. Using sterile technique, the media was removed and the cells were detached from the dish by the addition of trypsin. One fifth of the cells were then placed onto a new 10-cm dish. Cells were grown in a 37° C. incubator with 5% CO2 in Minimal Essential Media Eagle with 10% Fetal Bovine Serum. After 2 d, cells were approximately 80% confluent. These cells were removed from the dish with trypsin and pelleted in a clinical centrifuge. The pellet was re-suspended in 400 μL complete media and transferred to an electroporation cuvette with a 0.4 cm gap between the electrodes. Supercoiled rat FAAH cDNA (1 μg) was added to the cells and mixed. The voltage for the electroporation was set at 0.25 kV, and the capacitance was set at 960 μF. After electroporation, the cells were diluted into complete media (10 mL) and plated onto four 10-cm dishes. Because of the variability in the efficiency of electroporation, four different concentrations of cells were plated. The ratios used were 1:20, 1:10, and 1:5, with the remainder of the cells being added to the fourth dish. The cells were allowed to recover for 24 h before adding the selection media (complete media with 600 μg/mL G418). After 10 d, dishes were analyzed for surviving colonies of cells. Dishes with well-isolated colonies were used. Cells from individual colonies were isolated and tested.
The assay mixture consisted of 50 μL of the cell homogenate, 10 μL of the test compound, and 40 μL of anandamide [1-^3H-ethanolamine] (^3H-AEA, Perkin-Elmer, 10.3 Ci/mmol), which was added last, for a final tracer concentration of 80 nM. The reaction mixture was incubated at rt for 1 h. During the incubation, 96-well Multiscreen filter plates (catalog number MAFCNOB50; Millipore, Bedford, Mass., USA) were loaded with 25 μL of activated charcoal (Multiscreen column loader, catalog number MACL09625, Millipore) and washed once with 100 μL of MeOH. […] After the 1 h incubation, 60 μL of the reaction mixture were transferred to the charcoal plates, which were then assembled on top of the DYNEX plates using Centrifuge Alignment Frames (catalog number MACF09604, Millipore). The unbound labeled ethanolamine was centrifuged through to the bottom plate (5 min at 2000 rpm), which was preloaded with the scintillant, as described above. The plates were sealed and left at rt for 1 h before counting on a Hewlett Packard TopCount.

For test [3], the target named is T3, FAAH (Rattus norvegicus, UniProt P97612).
T3 sequence (P97612 1-579): T2 sequence (P97612 1-579)
The experiment in a line: Assay Method 1A: FAAH enzyme assay, 14C-oleamide hydrolysis, solubilized liver plasma membrane extract.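 Further: ki obtained by Dixon analysis, taking the x-intercept of inhibitor concentration versus reciprocal rate plots at fixed substrate level and correcting for substrate concentration relative to Km.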
Experimental: Linear least squares fits were used for all reaction progress curves and R^2 values were consistently >0.97. […] Ki values were determined by the Dixon Method (x-intercepts of weighted linear fits of [I] versus 1/rate plots at constant substrate concentration, which were converted to Ki values using the formula Ki=−xint/[1+[S]/Km]).

For the compound `N#Cc1ccc(-c2cnc(C(=O)CCCCCCc3ccccc3)o2)cc1` [Example 18, 4-(2-(7-Phenylheptanoyl)oxazol-5-yl)benzonitrile], the figures for the IC50 in test [1] and in test [2] were 290 nM and 220 nM, respectively. `COc1ncc(-c2cnc(C(=O)CCCCCCc3ccccc3)o2)c(OC)n1` [Example 53, 1-(5-(2,4-Dimethoxypyrimidin-5-yl)oxazol-2-yl)-7-phenylheptan-1-one] displayed a Ki in test [3] of 26 nM. The same measure, in the same setting: next, `O=C(CCCCCCc1ccccc1)c1ncc(-c2cc(C(F)(F)F)ccn2)o1` [Example 47, 7-Phenyl-1-(5-(4-(trifluoromethyl)pyridin-2-yl)oxazol-2-yl)heptan-1-one]: 4 nM. In test [1], `NS(=O)(=O)c1ccccc1-c1cnc(C(=O)CCCCCCc2ccccc2)o1` [Example 19, 2-(2-(7-Phenylheptanoyl)oxazol-5-yl)benzenesulfonamide] came in with an IC50 of 2000 nM. The compound further showed a Ki in test [3] of 1500 nM. With `COc1cc(-c2cnc(C(=O)CCCCCCc3ccccc3)o2)nc(OC)n1` [Example 51, 1-(5-(2,6-Dimethoxypyrimidin-4-yl)oxazol-2-yl)-7-phenylheptan-1-one], the Ki in test [3] was determined as 5 nM. This counts as single-digit nanomolar.

Consider `Nc1ccnc(-c2cnc(C(=O)CCCCCCc3ccccc3)o2)c1` [Example 49, 1-(5-(4-Aminopyridin-2-yl)oxazol-2-yl)-7-phenylheptan-1-one], for which the affinity in test [3], expressed as Ki, was 25 nM. On the same count and under the same terms, next, `Cc1ccc(-c2cnc(C(=O)CCCCCCc3ccccc3)o2)nc1` [Example 42, 1-(5-(5-Methylpyridin-2-yl)oxazol-2-yl)-7-phenylheptan-1-one]: 3 nM. With `O=C(CCCCCCc1ccccc1)c1ncc(-c2ccc(O)cc2)o1` [Example 32, 1-(5-(4-Hydroxyphenyl)oxazol-2-yl)-7-phenylheptan-1-one], the IC50 was 450 nM in test [1] and 1800 nM in test [2]. For `Nc1ccc(-c2cnc(C(=O)CCCCCCc3ccccc3)o2)cc1` [Example 29, 1-(5-(4-Aminophenyl)oxazol-2-yl)-7-phenylheptan-1-one], the IC50 in test [1] was 280 nM; in test [2], 980 nM. Turning to `Cc1ccnc(-c2cnc(C(=O)CCCCCCc3ccccc3)o2)c1` [Example 43, 1-(5-(4-Methylpyridin-2-yl)oxazol-2-yl)-7-phenylheptan-1-one], in test [3], the Ki is 1 nM. This lies in the single-digit nanomolar range. As to `O=C(CCCCCCc1ccccc1)c1ncc(-c2cccc(C(=O)C(F)(F)F)c2)o1` [Example 5, 7-Phenyl-1-(5-(3-(2,2,2-trifluoroacetyl)phenyl)oxazol-2-yl)heptan-1-one], the IC50 in test [1] was 40 nM; in test [2] it was 500 nM. The compound `O=C(CCCCCCc1ccccc1)c1ncc(-c2ncccc2C(=O)O)o1` [Example 40, 2-(2-(7-Phenylheptanoyl)oxazol-5-yl)nicotinic acid] returned a Ki in test [3] above 50 nM. Still for that read-out and setting: next, `Cc1cccc(-c2cnc(C(=O)CCCCCCc3ccccc3)o2)n1` [Example 41, 1-(5-(6-Methylpyridin-2-yl)oxazol-2-yl)-7-phenylheptan-1-one]: 3 nM.

In the case of `O=C(CCCCCCc1ccccc1)c1ncc(-c2ccc(F)cc2)o1` [Example 12, 1-(5-(4-Fluorophenyl)oxazol-2-yl)-7-phenylheptan-1-one], the IC50 in test [1] was found to be 100 nM; in test [2], 1000 nM. With `COc1ccc(-c2cnc(C(=O)CCCCCCc3ccccc3)o2)cc1` [Example 15, 1-(5-(4-Methoxyphenyl)oxazol-2-yl)-7-phenylheptan-1-one], the IC50 is 770 nM in test [1] and 4000 nM in test [2]. The like results for `O=C(CCCCCCc1ccccc1)c1ncc(-c2cccc(O)c2)o1` [Example 31, 1-(5-(3-Hydroxyphenyl)oxazol-2-yl)-7-phenylheptan-1-one] were, in that order, 55 nM and 570 nM. With `Cc1cccnc1-c1cnc(C(=O)CCCCCCc2ccccc2)o1` [Example 44, 1-(5-(3-Methylpyridin-2-yl)oxazol-2-yl)-7-phenylheptan-1-one], the Ki in test [3] worked out at 15 nM.

`N#Cc1ccnc(-c2cnc(C(=O)CCCCCCc3ccccc3)o2)c1` [Example 46, 2-(2-(7-Phenylheptanoyl)oxazol-5-yl)isonicotinonitrile] returned a Ki in test [3] of 2 nM. Consider `O=C(CCCCCCc1ccccc1)c1ncc(-c2cc([N+](=O)[O-])ccn2)o1` [Example 48, 1-(5-(4-Nitropyridin-2-yl)oxazol-2-yl)-7-phenylheptan-1-one], for which, in test [3], affinity was put at a Ki of 3 nM. Consider `COc1ccccc1-c1cnc(C(=O)CCCCCCc2ccccc2)o1` [Example 13, 1-(5-(2-Methoxyphenyl)oxazol-2-yl)-7-phenylheptan-1-one], for which the IC50 in test [1] is 1900 nM. This compound yielded a Ki in test [3] of 400 nM. For `COc1ccnc(-c2cnc(C(=O)CCCCCCc3ccccc3)o2)c1` [Example 45, 1-(5-(4-Methoxypyridin-2-yl)oxazol-2-yl)-7-phenylheptan-1-one], the Ki in test [3] amounted to 2 nM. Still for that read-out and setting: next, `COC(=O)c1ccnc(-c2cnc(C(=O)CCCCCCc3ccccc3)o2)c1` [Example 35, Methyl 2-(2-(7-phenylheptanoyl)oxazol-5-yl)isonicotinate]: 1 nM.
